Reference: patent US10273290B2, “Hydrocarbon double-stapled stabilized HIV-1 GP41 heptad repeat domain peptides” (DANA-FARBER CANCER INSTITUTE, INC., priority 2009, dated 2019)
Entries after “also recorded” stand apart in the source; their conditions may differ. Like-named read-outs stand apart in the source and are kept apart here. Bridge positions count the residues as written; N and C are the ends. Square brackets hold non-standard residues; d marks the D form. Ends that are not written are not given here. Peptide text beside a SMILES is read from it. S5 = C=CCCC[C@](C)(N)C(=O)O; Nle = CCCC[C@H](N)C(=O)O

Assays:
[1] = test system: HIV-1 strains HXBc2, ADA, and HXBc2P 3.2; assay: Luciferase-based HIV-1 infectivity assay, three strains; type: cell-based
Description: Also the direct inhibitory activity of modified polypeptides and the antibodies targeted thereto can be quantified based upon their capacity to directly block HIV infection of CD4-positive and CCR5-expressing canine thymus cells. […] The identical experiment is performed with the amphotropic murine leukemia virus (AMLV), to monitor for any nonspecific effects of the modified polypeptides or antibodies.
(§1) HIV-1 infectivity assays were performed using known methods (Madani et al., 2007 Inhibition of human immunodeficiency virus envelope glycoprotein-mediated single cell lysis by low-molecular-weight antagonists of viral entry. J Virol, 81: 532-538; and Si et al., 2001 Envelope glycoprotein determinants of neutralization resistance in a simian-human immunodeficiency virus (SHIV-HXBc2P 3.2) derived by passage in monkeys. J Virol, 75:4208-4218; both incorporated herein by reference). […] Virus-containing supernatants were harvested 24-30 hr after transfection, filtered, aliquoted, and stored at −80° C. Target cells were seeded at a density of 6×10^3 cells/well in 96-well plates 24 hours prior to infection. Cf2Th-CD4-CCR5 cells were used for infections by viruses with the ADA, YU2, and A-MLV envelope glycoproteins, and Cf2Th-CD4-CXCR4 cells used for HXBc2, HXBc2P 3.2, and A-MLV. On the day of infection, the structured peptides (0-3 μM) were added to recombinant viruses (10,000 RT units) to a final volume of 50 μL and incubated at 37° C. for 30 min. Media was then removed and the target cells incubated with virus-peptide mixture for 48 hours at 37° C. The media was again removed and the cells lysed with 30 μL of passive lysis buffer (Promega) and three freeze-thaw cycles.
Recombinant HIV-1 bearing the envelope glycoproteins from three distinct HIV-1 strains, HXBc2, ADA, and HXBc2P 3.2, and a negative control virus bearing the amphotropic murine leukemia virus (A-MLV) envelope glycoproteins, were evaluated.

pepsin = assay: Protease resistance assay, pepsin at pH 2; conditions: for Half-life (minutes), pepsin: pepsin at 0.5 ng/μL, peptide 25 μM, acidic conditions
Description: The DAD signal was set to 280 nm with an 8 nm bandwidth and MSD set to scan mode with one channel at (M+2H)/2, +1 mass units and the other at (M+3H)/3, +1 mass units. […] Reaction samples were composed of 5 μL peptide in DMSO (1 mM stock) and 195 μL of buffer consisting of 50 mM phosphate buffer pH 7.4 containing 2 mM CaCl2. Upon injection of the 0 hr time point sample, 2 μL of 50 ng/μL chymotrypsin (Sigma) was added and the amount of intact peptide quantitated by serial injection over time. An internal control of acetylated tryptophan carboxamide at a concentration of 100 μM was used to normalize each MSD data point. A plot of MSD area versus time yielded an exponential decay curve and half-lives were determined by nonlinear regression analysis using Prism software (GraphPad). The assay was also performed using trypsin and pepsin in their appropriate buffer conditions.

chymotrypsin = target: T1, chymotrypsin (Bos taurus, UniProt P00766); assay: Protease resistance assay, chymotrypsin (LC/MS); type: in vitro ADME; conditions: pH 7.4, 0.5 chymotrypsin, peptide 25 μM
T1 construct: purchased Sigma
Description: The DAD signal was set to 280 nm with an 8 nm bandwidth and MSD set to scan mode with one channel at (M+2H)/2, +1 mass units and the other at (M+3H)/3, +1 mass units. Integration of each MSD signal yielded areas under the curve of >10^8 counts. Reaction samples were composed of 5 μL peptide in DMSO (1 mM stock) and 195 μL of buffer consisting of 50 mM phosphate buffer pH 7.4 containing 2 mM CaCl2. Upon injection of the 0 hr time point sample, 2 μL of 50 ng/μL chymotrypsin (Sigma) was added and the amount of intact peptide quantitated by serial injection over time. An internal control of acetylated tryptophan carboxamide at a concentration of 100 μM was used to normalize each MSD data point. A plot of MSD area versus time yielded an exponential decay curve and half-lives were determined by nonlinear regression analysis using Prism software (GraphPad).

4E10 antibody = assay: Competitive 4E10 antibody binding by ELISA; design: species or system human; conditions: competition with wild-type MPER peptide probe
Description: Half maximal inhibitory concentrations (IC50s) were determined by competitive enzyme-linked assay (ELISA) using a constant concentration of biotinylated peptide and 4E10-IgG with a variable concentration of gp41 peptides. Microwells were coated overnight at 4° C. with 50 μl of PBS containing neutravidin (4 μg/ml). Wells were washed twice with PBS containing 0.05% Tween 20, and blocked with 4% non-fat dry milk (NFDM) in PBS for 45 min at 37° C. Meanwhile, a mixture of a biotinylated 4E10-peptide epitope, biotin-PEG2-[…], (20 nM), IgG 4E10 (0.2 nM), and the competing peptide analogue (threefold dilution series starting at 10 μM) in 0.4% NFDM, 0.02% Tween and PBS was incubated in a separate 96-well plate at 37° C. for 2 h. After washing the blocked plate, the mixture of 4E10, biotinylated peptide and competing structured HIV-1 gp41 peptide was added to the wells. After 20 min at room temperature, the wells were washed five times, and a 1:500 dilution of Goat Anti-Human IgG F(ab′)2, Peroxidase Conjugate was added. […] After 20 min, wells containing TMB solution were stopped by adding 50 μl of H2SO4 (2 M), and the absorbance at 450 nm was read on a microplate reader (Molecular Devices). The concentration of competitor peptide corresponding to a half-maximal signal (IC50) was determined by interpolation of the resulting binding curve using GraphPad Prism. […]

Chymotrypsin, pH 7 [2] = assay: Chymotrypsin, pH 7
Description: (§2) Title: Chymotrypsin, pH 7
First reader's note: The table also serves as the legend of the plot of fraction intact over time; the line and marker symbols are left out.

Chymotrypsin, pH 7 [3] = assay: Chymotrypsin, pH 7; remark: listed apart in the source
Description: Table printed on a drawing sheet, FIG. 17D
as §2
First reader's note: The table also serves as the legend of the plot below it (fraction intact over time); the plot symbols before the compound names are left out.

[4] = Circular dichroism, α-helical content; type: physicochemical
Description: The α-helicity of stapled modified polypeptides was compared to their unmodified counterparts by circular dichroism. CD spectra were obtained on an Aviv spectropolarimeter at 20° C. using the following standard measurement parameters: wavelength, 190-260 nm; step resolution, 0.5 nm; speed, 20 nm/sec; accumulations, 10; response, 1 sec; bandwidth, 1 nm; path length, 0.1 cm. The α-helical content of each peptide was calculated by dividing the mean residue ellipticity [θ]222obs, by the reported [θ]222obs for a model helical peptide (Forood, B., E. J. Feliciano, and K. P. Nambiar, PNAS, 1993. 90(3): p. 838-842; J. Martin Scholtz, Biopolymers, 1991. 31(13): p. 1463-1470; Lawless, M. K., et al., Biochemistry, 1996. 35(42): p. 13697-13708) or using, for example, the Aviv machine using CDNN software developed by Brohm in order to deduce five different secondary structure fractions (helix, parallel and antiparallel beta-sheet, beta-turn and random coil). Protein Engineering, 1992. 5(3); p. 191-195
In order to evaluate secondary structure improvements of hydrocarbon-stapled peptides, we record and analyze circular dichroism (CD) spectra on an Aviv Biomedical spectrometer (model 410), as described above. […] The CD spectra are initially plotted as wavelength versus millidegree. […] After conversion to mean residue ellipticity, percent α-helicity can be calculated using the equation, % helicity=100×[θ]222/^max[θ]222, where ^max[θ]222=−40,000×[1−(2.5/number of amino acid residues)]. We also employ the curve-fitting CDDN software that is bundled with our spectrometer to calculate the relative fractions of secondary structure including α-helix, parallel and antiparallel β-sheet, β-turn and random coil.

[5] = test system: HIV-1 HXBc2 virus bearing HR1 double mutations V38A/N42T and V38E/N42S; assay: HIV-1 infectivity assay, enfuvirtide-resistant HR1 double mutants; type: cell-based
Description: as §1

For `CCCC[C@H](NC(C)=O)C(=O)N[C@H](C(=O)N[C@@H](Cc1c[nH]c2ccccc12)C(=O)N[C@@H](CCCC)C(=O)N[C@@H](CCC(=O)O)C(=O)N[C@@H](Cc1c[nH]c2ccccc12)C(=O)N[C@@]1(C)CCCC=CCCC[C@@](C)(C(=O)N[C@@H](CC(N)=O)C(=O)N[C@@H](Cc2ccc(O)cc2)C(=O)N[C@H](C(=O)N[C@@H](CO)C(=O)N[C@@H](CC(C)C)C(=O)N[C@H](C(=O)N[C@@H](Cc2c[nH]cn2)C(=O)N[C@@H](CO)C(=O)N[C@@H](CC(C)C)C(=O)N[C@H](C(=O)N[C@@H](CCC(=O)O)C(=O)N[C@@H](CCC(=O)O)C(=O)N[C@@H](CO)C(=O)N[C@@H](CCC(N)=O)C(=O)N[C@@H](CC(N)=O)C(=O)N[C@@H](CCC(N)=O)C(=O)N[C@@]2(C)CCCC=CCCC[C@@](C)(C(=O)N[C@@H](CCC(N)=O)C(=O)N[C@@H](CCC(=O)O)C(=O)N[C@@H](CC(C)C)C(=O)N[C@@H](CC(C)C)C(=O)N[C@@H](CCC(=O)O)C(N)=O)NC(=O)[C@H](CC(N)=O)NC(=O)[C@H](CCCCN)NC(=O)[C@H](CCC(=O)O)NC2=O)[C@@H](C)CC)[C@@H](C)CC)[C@@H](C)O)NC(=O)[C@H]([C@@H](C)CC)NC(=O)[C@H](CCC(=O)O)NC(=O)[C@H](CCCNC(=N)N)NC1=O)[C@@H](C)O` [SAH-gp41(626-662)(B, F)] (Ac-[Nle]TW[Nle]EW[S5]REI[S5]NYTSLIHSLIEESQNQ[S5]EKN[S5]QELLE-NH2; staple 7-11, 28-32), the “anti-HIV-1 (anti-viral) activity, in words” value [1] was “relatively impaired anti-viral activity”, the half-life at 25 μM (pepsin; pepsin (isolated protease) in buffer, pH 2) was 930 min and the Half-Life (chymotrypsin) was 1280 min.

With “SEQ ID NO:135: i, i+4 singly stapled SAH-MPER peptide stapled in a similar position (ELDKWASLWNWFNITN[S5]LWY[S5]K-NH2; staple 17-21)” the “competition for 4E10 antibody binding, in words” value (4E10 antibody) was “superior to the wild-type MPER peptide”.

For “SEQ ID NO:136: i, i+3 singly stapled SAH-MPER peptide (ELDKWASLWNWFNITN[S5]LW[S5]IK-NH2; staple 17-20)”, the “competition for 4E10 antibody binding, in words” value (4E10 antibody) was “compete more effectively for binding than an i, i+4 stapled peptide stapled in a similar position; also recorded: superior to the wild-type MPER peptide”.

With Sifuvirtide the “Half-Life” value (Chymotrypsin, pH 7 [2]) was 2 min.

For enfuvirtide [listing 1 of 2 here], the “anti-HIV-1 (anti-viral) activity, in words” value [1] was “relatively impaired anti-viral activity”, the “Half-life (minutes), pepsin” value (pepsin) was 3320 min and the “Half-Life” value (Chymotrypsin, pH 7 [3]) was 1004 min.

For enfuvirtide [listing 2 of 2 here], the “% helicity at pH 2” value ([4]; pH 2) was 49%, the “% helicity at pH 7” value ([4]; pH 7) was 19% and the “calculated α-helical content” value ([4]; physiologic pH) was roughly 25%. The “functional activity against HR1 double-mutant HIV-1, in words” value [5] was “no functional activity” and the “Half-life (minutes), pepsin” value (pepsin) was 4 min.
